Data as given in US4741899A, “Process for arresting the proliferation of organisms that convert axillary secretions to malodorous materials” (Bristol-Myers Company, priority 1983, dated 1988).
Structures can show the parent of a compound that is named as a salt.

How the values were obtained:
Staph (Axilla) = assay: In vitro minimum inhibitory (bactericidal) concentration, Staph (Axilla); format: cell-based, staphylococci; settings: 24 hrs. at 35° C., subculture further 24 hrs.; liquid culture medium
Protocol: (§1) To test the activity of the compounds employed in the present invention in arresting the proliferation of axillary organisms (e.g. corynebacteria and staphylococci) the following in vitro study was carried out:
(§2) Aqueous solutions (or suspensions) were prepared for each test substance. Serial two-fold dilutions of the above were then made in liquid culture medium. Each tube (10 ml of liquid) in the dilution series was inoculated with 0.2 ml of a 1:500 dilution of 24 hr. culture of bacteria. After 24 hrs. at 35° C., tubes showing turbidity (growth) were noted. All non-turbid dilutions were subcultured to liquid growth medium and incubated an additional 24 hrs. at 35° C. The lowest concentration of substance which yielded no growth upon subculture was noted as the minimum inhibitory (bactericidal) concentration (=MIC).
(§3) The numbers appearing in columns 2 and 3 give the minimum inhibitory concentration in percent (MIC %) for the materials tested i.e. the minimum concentration in percent of the agent tested which will inhibit the proliferation of the test organisms. The entries in the last column are judgments with respect to the activity of the agent tested.

Diphth (Axilla) = assay: In vitro minimum inhibitory (bactericidal) concentration, Diphth (Axilla); format: cell-based, aerobic diphtheroids (corynebacteria); settings: 24 hrs. at 35° C., subculture further 24 hrs.; liquid culture medium
Protocol: as §1, §2, §3

[1] = tested on: axillary organisms (e.g. corynebacteria and staphylococci); assay: In vitro Studies - Summary, judgment of activity against axillary organisms; format: cell-based; settings: Staph and Diphth (Axilla)
Protocol: as §1, §2, §3

Row | Structure (SMILES) | MIC (%) - cidal, Staph (Axilla) (Staph (Axilla)) [%] | MIC (%) - cidal, Diphth (Axilla) (Diphth (Axilla)) [%] | Comments (judgment with respect to the activity of the agent tested) [1]
1 | CC(CNC1CCCCC1)OC(=O)c1ccccc1 (stereo not drawn) [Hexylcaine HCl] | 0.16 | 0.16 | –
2 | c1ccc2c(CC3=NCCN3)cccc2c1 [Naphazoline HCl] | 0.31 | 0.31 | –
3 | CN1CCC2=C(C1)C(c1ccccc1)c1ccccc12 (stereo not drawn) [Phenindamine tartrate] | 0.04 | 0.08 | Good Activity
4 | COc1ccc(CN(CCN(C)C)c2ccccn2)cc1 [Pyrilamine maleate] | 0.63 | 0.63 | –
5 | CCCCNc1ccc(C(=O)OCCN(C)C)cc1 [Tetracaine HCl] | 0.08 | 0.08 | –
6 | CN(C)CCN(Cc1ccccc1)c1ccccn1 [Tripelennamine HCl] | 0.63 | 0.31 | –
7 | Cc1cc(C(C)(C)C)cc(C)c1CC1=NCCN1 [Xylometazoline HCl] | 0.08 | 0.04 | –
